{"source": "ChEMBL document CHEMBL3132769", "about": "“Fragment growing to retain or alter the selectivity of anchored kinase hinge-binding fragments” (Medchemcomm, 2014)", "key": {"[1]": {"molecular_target": "MAP kinase-activated protein kinase 2 (Homo sapiens) (UniProt P49137)", "sequence (P49137 whole entry, looked up)": "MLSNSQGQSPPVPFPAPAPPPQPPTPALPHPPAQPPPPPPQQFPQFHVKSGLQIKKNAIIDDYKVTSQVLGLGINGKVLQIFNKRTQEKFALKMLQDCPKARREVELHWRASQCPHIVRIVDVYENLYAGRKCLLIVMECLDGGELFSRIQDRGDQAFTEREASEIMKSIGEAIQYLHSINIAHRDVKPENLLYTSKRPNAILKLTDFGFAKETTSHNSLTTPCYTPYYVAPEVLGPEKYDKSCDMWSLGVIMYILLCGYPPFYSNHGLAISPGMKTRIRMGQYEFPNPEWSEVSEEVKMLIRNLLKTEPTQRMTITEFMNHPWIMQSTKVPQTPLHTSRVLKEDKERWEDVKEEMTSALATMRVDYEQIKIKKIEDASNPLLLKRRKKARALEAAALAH", "test": "Inhibition of human full length MAPKAPK2 expressed in baculovirus assessed as substrate phosphorylation using fluorescence-labelled peptides as substrate at 8 uM after 90 mins by microfluidic peptide phosphorylation assay"}, "[2]": {"molecular_target": "RAF proto-oncogene serine/threonine-protein kinase (Homo sapiens) (UniProt P04049)", "sequence (P04049 whole entry, the tested form may be a part)": "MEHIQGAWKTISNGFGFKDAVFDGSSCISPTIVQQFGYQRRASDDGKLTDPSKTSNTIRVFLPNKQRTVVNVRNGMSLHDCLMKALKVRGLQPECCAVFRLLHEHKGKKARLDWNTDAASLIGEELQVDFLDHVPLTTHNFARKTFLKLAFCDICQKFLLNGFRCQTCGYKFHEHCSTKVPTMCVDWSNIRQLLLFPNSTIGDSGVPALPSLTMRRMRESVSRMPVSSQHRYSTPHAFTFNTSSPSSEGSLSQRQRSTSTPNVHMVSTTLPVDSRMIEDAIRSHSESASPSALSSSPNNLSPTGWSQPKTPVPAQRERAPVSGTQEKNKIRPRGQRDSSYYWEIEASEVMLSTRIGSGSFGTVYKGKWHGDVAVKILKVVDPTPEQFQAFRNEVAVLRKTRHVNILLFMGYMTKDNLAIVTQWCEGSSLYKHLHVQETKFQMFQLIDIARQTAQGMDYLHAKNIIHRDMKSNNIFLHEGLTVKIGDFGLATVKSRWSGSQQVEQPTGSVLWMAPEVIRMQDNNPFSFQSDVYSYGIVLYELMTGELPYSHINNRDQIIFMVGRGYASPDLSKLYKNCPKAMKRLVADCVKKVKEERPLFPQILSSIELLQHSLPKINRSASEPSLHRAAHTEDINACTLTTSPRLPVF", "test": "Inhibition of human truncated c-Raf expressed in baculovirus assessed as substrate phosphorylation using fluorescence-labelled peptides as substrate at 0.06 uM after 90 mins by microfluidic peptide phosphorylation assay"}, "[3]": {"molecular_target": "Tyrosine-protein kinase Lck (Homo sapiens) (UniProt P06239)", "sequence (P06239 2-509 limits assumed)": "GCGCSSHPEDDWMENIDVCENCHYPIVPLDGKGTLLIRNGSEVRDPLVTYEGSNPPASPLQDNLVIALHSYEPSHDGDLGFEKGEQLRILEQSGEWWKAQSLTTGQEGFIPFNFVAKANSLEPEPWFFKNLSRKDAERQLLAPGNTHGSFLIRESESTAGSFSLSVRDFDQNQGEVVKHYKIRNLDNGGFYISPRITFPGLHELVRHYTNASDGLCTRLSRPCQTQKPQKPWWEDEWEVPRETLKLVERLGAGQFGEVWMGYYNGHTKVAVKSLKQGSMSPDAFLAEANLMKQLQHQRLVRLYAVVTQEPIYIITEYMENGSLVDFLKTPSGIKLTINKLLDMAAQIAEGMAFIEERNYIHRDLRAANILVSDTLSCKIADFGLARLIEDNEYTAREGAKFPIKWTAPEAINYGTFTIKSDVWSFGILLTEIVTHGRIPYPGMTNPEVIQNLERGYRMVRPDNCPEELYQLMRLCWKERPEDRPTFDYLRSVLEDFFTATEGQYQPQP", "test": "Inhibition of human full length LCK expressed in baculovirus assessed as substrate phosphorylation using fluorescence-labelled peptides as substrate at 0.2 uM after 90 mins by microfluidic peptide phosphorylation assay"}, "[4]": {"molecular_target": "Tyrosine-protein kinase BTK (Homo sapiens) (UniProt Q06187)", "sequence (Q06187 whole entry)": "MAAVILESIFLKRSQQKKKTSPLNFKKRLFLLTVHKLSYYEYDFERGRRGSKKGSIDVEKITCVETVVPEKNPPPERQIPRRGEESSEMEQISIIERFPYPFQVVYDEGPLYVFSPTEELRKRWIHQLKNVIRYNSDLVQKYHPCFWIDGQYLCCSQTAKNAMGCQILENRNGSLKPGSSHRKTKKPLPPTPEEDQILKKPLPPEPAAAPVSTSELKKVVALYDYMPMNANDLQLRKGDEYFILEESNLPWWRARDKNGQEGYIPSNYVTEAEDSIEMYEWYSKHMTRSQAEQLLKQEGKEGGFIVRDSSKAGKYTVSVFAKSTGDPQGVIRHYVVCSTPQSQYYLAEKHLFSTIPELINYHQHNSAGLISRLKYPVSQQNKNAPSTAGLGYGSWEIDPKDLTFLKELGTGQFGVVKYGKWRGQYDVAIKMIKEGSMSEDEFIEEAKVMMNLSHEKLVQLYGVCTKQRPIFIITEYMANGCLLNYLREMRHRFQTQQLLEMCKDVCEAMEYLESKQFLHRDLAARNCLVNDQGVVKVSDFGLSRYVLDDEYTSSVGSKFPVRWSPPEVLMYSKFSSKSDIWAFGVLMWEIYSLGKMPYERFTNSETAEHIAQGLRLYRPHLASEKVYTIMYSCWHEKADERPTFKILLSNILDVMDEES", "test": "Inhibition of human full length BTK expressed in baculovirus assessed as substrate phosphorylation using fluorescence-labelled peptides as substrate at 2 uM after 90 mins by microfluidic peptide phosphorylation assay"}, "[5]": {"molecular_target": "Fibroblast growth factor receptor 4 (Homo sapiens) (UniProt P22455)", "sequence (P22455 22-802 limits assumed)": "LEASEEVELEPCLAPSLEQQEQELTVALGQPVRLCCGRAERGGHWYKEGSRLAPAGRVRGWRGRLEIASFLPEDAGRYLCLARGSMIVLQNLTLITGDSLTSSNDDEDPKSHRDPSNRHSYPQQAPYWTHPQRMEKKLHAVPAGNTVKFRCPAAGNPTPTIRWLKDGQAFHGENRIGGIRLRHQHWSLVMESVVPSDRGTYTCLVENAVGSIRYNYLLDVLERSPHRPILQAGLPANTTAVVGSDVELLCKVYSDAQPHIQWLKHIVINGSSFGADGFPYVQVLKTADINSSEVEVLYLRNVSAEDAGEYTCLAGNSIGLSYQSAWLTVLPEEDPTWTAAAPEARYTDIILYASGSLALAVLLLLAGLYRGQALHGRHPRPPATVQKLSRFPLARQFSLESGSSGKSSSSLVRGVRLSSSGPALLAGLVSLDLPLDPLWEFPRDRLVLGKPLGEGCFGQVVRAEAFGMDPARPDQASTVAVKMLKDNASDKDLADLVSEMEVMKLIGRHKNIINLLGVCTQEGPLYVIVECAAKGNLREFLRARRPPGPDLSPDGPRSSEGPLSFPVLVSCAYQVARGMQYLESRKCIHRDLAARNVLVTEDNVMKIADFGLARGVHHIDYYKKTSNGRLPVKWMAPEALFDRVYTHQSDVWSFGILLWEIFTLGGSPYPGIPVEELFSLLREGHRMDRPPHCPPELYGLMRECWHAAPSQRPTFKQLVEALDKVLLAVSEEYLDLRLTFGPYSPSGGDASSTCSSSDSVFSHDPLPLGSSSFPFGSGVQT", "test": "Inhibition of human FGFR4 catalytic domain expressed in baculovirus assessed as substrate phosphorylation using fluorescence-labelled peptides as substrate at […] after 90 mins by microfluidic peptide phosphorylation assay"}, "[6]": {"molecular_target": "Tyrosine-protein kinase Lyn (Homo sapiens) (UniProt P07948)", "sequence (P07948 2-512 limits assumed)": "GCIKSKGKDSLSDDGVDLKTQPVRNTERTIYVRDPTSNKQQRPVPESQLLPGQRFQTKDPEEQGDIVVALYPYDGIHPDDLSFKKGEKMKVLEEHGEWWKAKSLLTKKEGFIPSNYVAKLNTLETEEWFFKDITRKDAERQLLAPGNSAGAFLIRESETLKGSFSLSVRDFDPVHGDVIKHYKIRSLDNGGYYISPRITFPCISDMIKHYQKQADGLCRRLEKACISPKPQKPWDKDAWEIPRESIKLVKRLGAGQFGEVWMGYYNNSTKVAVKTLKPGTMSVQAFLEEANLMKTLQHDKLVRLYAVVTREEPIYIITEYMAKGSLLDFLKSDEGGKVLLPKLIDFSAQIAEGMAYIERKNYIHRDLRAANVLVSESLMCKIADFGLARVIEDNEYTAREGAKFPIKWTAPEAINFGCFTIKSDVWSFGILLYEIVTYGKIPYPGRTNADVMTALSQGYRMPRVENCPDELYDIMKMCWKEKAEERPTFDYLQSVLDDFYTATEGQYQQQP", "test": "Inhibition of human full length LYN expressed in baculovirus assessed as substrate phosphorylation using fluorescence-labelled peptides as substrate at […] after 90 mins by microfluidic peptide phosphorylation assay"}, "[7]": {"molecular_target": "Ribosomal protein S6 kinase alpha-4 (Homo sapiens) (UniProt O75676)", "sequence (O75676 whole entry, looked up)": "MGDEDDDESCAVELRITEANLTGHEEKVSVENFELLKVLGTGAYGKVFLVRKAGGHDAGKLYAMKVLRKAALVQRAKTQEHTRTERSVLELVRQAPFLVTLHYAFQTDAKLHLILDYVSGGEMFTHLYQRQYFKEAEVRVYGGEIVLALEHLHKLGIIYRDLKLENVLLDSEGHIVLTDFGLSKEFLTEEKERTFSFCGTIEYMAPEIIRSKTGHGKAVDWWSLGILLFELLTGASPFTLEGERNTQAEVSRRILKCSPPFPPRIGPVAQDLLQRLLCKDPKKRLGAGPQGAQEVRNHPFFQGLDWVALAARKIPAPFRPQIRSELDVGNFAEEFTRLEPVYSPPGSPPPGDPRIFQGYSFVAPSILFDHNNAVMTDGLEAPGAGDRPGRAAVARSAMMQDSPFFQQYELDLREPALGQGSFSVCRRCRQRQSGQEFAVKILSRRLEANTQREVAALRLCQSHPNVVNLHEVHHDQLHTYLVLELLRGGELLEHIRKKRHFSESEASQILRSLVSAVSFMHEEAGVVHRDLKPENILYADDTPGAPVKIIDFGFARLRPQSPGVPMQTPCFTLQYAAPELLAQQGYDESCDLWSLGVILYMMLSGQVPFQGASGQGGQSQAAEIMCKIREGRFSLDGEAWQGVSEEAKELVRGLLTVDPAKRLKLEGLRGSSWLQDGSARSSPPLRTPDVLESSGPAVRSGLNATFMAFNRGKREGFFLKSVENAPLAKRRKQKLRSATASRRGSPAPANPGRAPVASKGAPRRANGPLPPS", "test": "Inhibition of human full length MSK2 expressed in baculovirus assessed as substrate phosphorylation using fluorescence-labelled peptides as substrate at 70 uM after 90 mins by microfluidic peptide phosphorylation assay"}, "[8]": {"molecular_target": "Insulin receptor (Homo sapiens) (UniProt P06213)", "test": "Inhibition of human INSR catalytic domain expressed in baculovirus assessed as substrate phosphorylation using fluorescence-labelled peptides as substrate at 420 uM after 90 mins by microfluidic peptide phosphorylation assay"}, "[9]": {"molecular_target": "T1, Serine/threonine-protein kinase D2 (Homo sapiens) (UniProt Q9BZL6)", "T1 sequence (whole entry)": "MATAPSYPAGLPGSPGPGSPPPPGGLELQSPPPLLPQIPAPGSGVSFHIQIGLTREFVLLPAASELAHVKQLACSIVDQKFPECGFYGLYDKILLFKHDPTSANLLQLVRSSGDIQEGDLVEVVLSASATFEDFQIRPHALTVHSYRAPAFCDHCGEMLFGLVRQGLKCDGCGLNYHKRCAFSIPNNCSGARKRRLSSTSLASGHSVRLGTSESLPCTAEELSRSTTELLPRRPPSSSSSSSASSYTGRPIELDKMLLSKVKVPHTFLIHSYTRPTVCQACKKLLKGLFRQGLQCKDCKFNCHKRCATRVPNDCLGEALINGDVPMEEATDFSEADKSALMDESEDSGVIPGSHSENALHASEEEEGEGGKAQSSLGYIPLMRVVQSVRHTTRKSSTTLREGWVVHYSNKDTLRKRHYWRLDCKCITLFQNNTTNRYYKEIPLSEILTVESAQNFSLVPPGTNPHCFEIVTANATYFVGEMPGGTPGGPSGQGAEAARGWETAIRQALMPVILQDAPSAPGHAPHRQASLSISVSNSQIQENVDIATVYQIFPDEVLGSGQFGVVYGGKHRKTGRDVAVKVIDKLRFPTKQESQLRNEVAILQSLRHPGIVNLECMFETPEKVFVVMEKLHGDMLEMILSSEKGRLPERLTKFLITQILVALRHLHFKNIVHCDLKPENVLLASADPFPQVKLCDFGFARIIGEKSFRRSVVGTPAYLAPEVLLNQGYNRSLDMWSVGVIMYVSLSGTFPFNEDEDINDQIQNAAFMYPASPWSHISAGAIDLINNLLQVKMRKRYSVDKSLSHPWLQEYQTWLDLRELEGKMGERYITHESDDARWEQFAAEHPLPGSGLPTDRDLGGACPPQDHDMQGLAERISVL", "test": "Inhibition of human full length PKD2 expressed in baculovirus assessed as substrate phosphorylation using fluorescence-labelled peptides as substrate at 420 uM after 90 mins by microfluidic peptide phosphorylation assay"}, "[10]": {"molecular_target": "T2, Serine/threonine-protein kinase Nek2 (Homo sapiens) (UniProt P51955)", "T2 sequence (whole entry)": "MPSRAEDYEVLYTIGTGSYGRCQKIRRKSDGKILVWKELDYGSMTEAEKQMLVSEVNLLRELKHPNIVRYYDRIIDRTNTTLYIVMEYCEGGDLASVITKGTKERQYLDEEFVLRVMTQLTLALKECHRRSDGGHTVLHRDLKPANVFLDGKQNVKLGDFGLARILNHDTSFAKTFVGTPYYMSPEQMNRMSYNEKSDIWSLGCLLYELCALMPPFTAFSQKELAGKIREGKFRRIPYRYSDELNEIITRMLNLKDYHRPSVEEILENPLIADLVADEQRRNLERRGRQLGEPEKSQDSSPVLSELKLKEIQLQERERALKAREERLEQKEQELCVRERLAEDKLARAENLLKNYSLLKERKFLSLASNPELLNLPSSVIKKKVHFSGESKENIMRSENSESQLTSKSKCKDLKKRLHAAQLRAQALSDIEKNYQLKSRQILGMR", "test": "Inhibition of human full length NEK2 expressed in baculovirus assessed as substrate phosphorylation using fluorescence-labelled peptides as substrate at 420 uM after 90 mins by microfluidic peptide phosphorylation assay"}}}
{"smiles": "NCC1CCN(c2ncnc3[nH]ccc23)CC1", "values": [{"measurement": "inhibition", "setting": "[1]", "result": 81, "unit": "%"}]}
{"smiles": "NC1(Cc2ccc(Cl)cc2)CCN(c2ncnc3[nH]ccc23)CC1", "values": [{"measurement": "inhibition", "setting": "[2]", "result": 3.5, "unit": "%"}]}
{"smiles": "Clc1ccc(C2(c3ccc(-c4ncnc5[nH]cnc45)cc3)CCNCC2)cc1", "values": [{"measurement": "inhibition", "setting": "[3]", "result": 35, "unit": "%"}]}
{"smiles": "NC1CCN(c2ncnc3[nH]ccc23)CC1", "values": [{"measurement": "inhibition", "setting": "[4]", "result": 0.5, "unit": "%"}]}
{"smiles": "COC(=O)c1cnc(Nc2cnc(C#N)cn2)cc1NCC1CCNCC1", "values": [{"measurement": "inhibition", "setting": "[5]", "result": 1.5, "unit": "%"}, {"measurement": "inhibition", "setting": "[6]", "result": 8, "unit": "%"}]}
{"smiles": "CNCc1ccc(-c2ncnc3[nH]cnc23)cc1", "values": [{"measurement": "inhibition", "setting": "[7]", "result": 68, "unit": "%"}]}
{"smiles": "c1nc(N2CCOCC2)c2nc[nH]c2n1", "values": [{"measurement": "inhibition", "setting": "[8]", "result": 8, "unit": "%"}, {"measurement": "inhibition", "setting": "[9]", "result": 70, "unit": "%"}, {"measurement": "inhibition", "setting": "[10]", "result": 27, "unit": "%"}]}
